{
  "source": "patent US20240252493A1",
  "about": "“Apelin Receptor Modulators for Treating Age-Related Muscle Conditions” (BIOAGE LABS, INC., priority 2021, published 2024)",
  "key": {"[1]": {"tested_on": "Pax7, MyoD, MyoG, Myf5, MyHC3, and MyHC8", "test": "CTX-induced muscle injury: transcript levels of regeneration genes", "format": "in vivo, mice", "method": "Impairment of muscle regeneration can contribute to age-related muscle weakness. This is particularly true in aged individuals who engage in physical activity. Exercise-induced muscle hypertrophy is linked to the capacity of muscle stem cells to be activated and promote regeneration. […] Mice were i.p injected with buprenorphine (Centravet, 0.1 mg/kg) 30 minutes before injury and the day after. The day of the injury, mice were anesthetized with isoflurane inhalation and hindlimbs were shaved. Then, 10 μM of cardiotoxin (CTX, Latoxan, #L8102) was injected through two injections of 25 μl into the left tibialis muscle and two injections of 50 μl into the left gastrocnemius muscle, using a 22-gauge needle (Hamilton). Mice were euthanized 3 and 7 days after injury by cervical dislocation, muscles (PBS- and CTX-injected) were cut in two parts, one being snap frozen into liquid nitrogen for total RNA extraction and the other part being embedded into OCT, frozen in isopentane cooled with liquid nitrogen for histological analysis."}, "tibialis of aged mice": {"tested_on": "tibialis of aged mice", "test": "CTX-induced muscle injury: histology (cross-sectional area, centrally nucleated fibers)", "format": "in vivo", "method": "Impairment of muscle regeneration can contribute to age-related muscle weakness. This is particularly true in aged individuals who engage in physical activity. Exercise-induced muscle hypertrophy is linked to the capacity of muscle stem cells to be activated and promote regeneration.\nMice were i.p injected with buprenorphine (Centravet, 0.1 mg/kg) 30 minutes before injury and the day after. The day of the injury, mice were anesthetized with isoflurane inhalation and hindlimbs were shaved. Then, 10 μM of cardiotoxin (CTX, Latoxan, #L8102) was injected through two injections of 25 μl into the left tibialis muscle and two injections of 50 μl into the left gastrocnemius muscle, using a 22-gauge needle (Hamilton). Mice were euthanized 3 and 7 days after injury by cervical dislocation, muscles (PBS- and CTX-injected) were cut in two parts, one being snap frozen into liquid nitrogen for total RNA extraction and the other part being embedded into OCT, frozen in isopentane cooled with liquid nitrogen for histological analysis.\nMouse muscle samples were dissected and cryopreserved in OCT frozen in liquid nitrogen cooled isopentane. Samples were then sectioned at 10 μm on a cryostat and post-fixed with 4% Paraformaldehyde (PFA) for 15min at room temperature. Muscle frozen sections (10 μm) were stained by helaun/eosin or immune-labeled for laminin (Abcam) and embryonic myosin. Briefly, sections were blocked 1 h in PBS plus 4% BS(a), 2% goat serum, 0.01% Triton X-100. Sections were then incubated overnight with primary antibodies. After washes in PBS, sections were incubated 1 h with secondary antibodies anti-Ig2b AF 488 (Life Technology). Slides were finally mounted in ProLong Gold antifade Reagent (Molecular probes by Life Technology) with DAPI. Images were captured using a digital camera (Nanozoomer, Hamamatsu) attached to a motorized fluorescence microscope or using Olympus VS120 Virtual Microscopy Slide Scanning System. The area covered by eMHC-positive fibers and degenerated area was determined manually across the entire sections using the VS-ASW FL software measurement tools. The size of myofibers with central nuclei was calculated from laminin/DAPI staining on all fibers of the section and area determination were performed across the entire sections, using an automated image processing algorithm developed internally using the MetaXpress software (Molecular Devices)."}, "[2]": {"settings": "gastrocnemius, aged mice, 3 or 7 days, apelin 0.5 μmol/kg/day, BGE-105 50 and 200 mg/kg/day"}, "[3]": {"settings": "gastrocnemius, young mice, 3 or 7 days, apelin 0.5 μmol/kg/day, BGE-105 50 and 200 mg/kg/day"}, "[4]": {"settings": "tibialis anterior, aged mice, 7 days, apelin 0.5 μmol/kg/day, BGE-105 50 and 200 mg/kg/day"}, "[5]": {"settings": "tibialis, young mice, 3 or 7 days, apelin 0.5 μmol/kg/day, BGE-105 50 and 200 mg/kg/day"}},
  "data": [
    {"compound": "CSCC[C@H](NC(=O)[C@@H]1CCCN1C(=O)CNC(=O)[C@H](CCCCN)NC(=O)[C@H](Cc1c[nH]cn1)NC(=O)[C@H](CO)NC(=O)[C@H](CC(C)C)NC(=O)[C@H](CCCNC(=N)N)NC(=O)[C@@H]1CCCN1C(=O)[C@H](CCCNC(=N)N)NC(=O)[C@@H]1CCC(=O)N1)C(=O)N1CCC[C@H]1C(=O)N[C@@H](Cc1ccccc1)C(=O)O", "note": "[Pyr^1-Apelin-13, reference compound]", "values": [
      {"measurement": "Pax7 transcript levels", "setting": "[1]; gastrocnemius, aged (18-month-old) mice, 3 or 7 days, apelin 0.5 μmol/kg/day, BGE-105 50 and 200 mg/kg/day", "result": "no significant change"},
      {"measurement": "MyoD transcript levels", "setting": "[1]; gastrocnemius, aged mice, 3 and 7 days, apelin 0.5 μmol/kg/day, BGE-105 50 and 200 mg/kg/day", "result": "significant increase"},
      {"measurement": "Myf5 transcript levels", "setting": "[1]; [2]", "result": "no significant change"},
      {"measurement": "MyoG transcript levels", "setting": "[1]; [2]", "result": "no significant change"},
      {"measurement": "MyHC8 transcript levels", "setting": "[1]; gastrocnemius, aged mice, any time point, any treatment", "result": "does not show a change"},
      {"measurement": "Pax7 transcript levels", "setting": "[1]; gastrocnemius, young (3-month-old) mice, 3 or 7 days, apelin 0.5 μmol/kg/day, BGE-105 50 and 200 mg/kg/day", "result": "no change"},
      {"measurement": "Myf5 transcript levels", "setting": "[1]; [3]", "result": "no change"},
      {"measurement": "MyoD transcript levels", "setting": "[1]; [3]", "result": "no change"},
      {"measurement": "MyoG transcript levels", "setting": "[1]; [3]", "result": "no change"},
      {"measurement": "MyHC8 transcript levels", "setting": "[1]; gastrocnemius, young mice, 3 days, apelin 0.5 μmol/kg/day, BGE-105 50 and 200 mg/kg/day", "result": "non-significant increase"},
      {"measurement": "Pax7 transcript levels", "setting": "[1]; tibialis anterior, aged (18-month-old) mice, 7 days post cardiotoxin, apelin 0.5 μmol/kg/day, BGE-105 50 and 200 mg/kg/day", "result": "significant increase"},
      {"measurement": "MyoD transcript levels", "setting": "[1]; tibialis anterior, aged mice, 3 and 7 days post cardiotoxin, apelin 0.5 μmol/kg/day, BGE-105 50 and 200 mg/kg/day", "result": "significant increase"},
      {"measurement": "MyHC3 transcript levels", "setting": "[1]; [4]", "result": "significant increase"},
      {"measurement": "Myf5 transcript levels", "setting": "[1]; [4]", "result": "significant change"},
      {"measurement": "MyoG transcript levels", "setting": "[1]; [4]", "result": "significant increase"},
      {"measurement": "Pax7 transcript levels", "setting": "[1]; tibialis, young (3-month-old) mice, 3 or 7 days, apelin 0.5 μmol/kg/day, BGE-105 50 and 200 mg/kg/day", "result": "no change"},
      {"measurement": "MyHC3 transcript levels", "setting": "[1]; [5]", "result": "no significant change"},
      {"measurement": "MyHC8 transcript levels", "setting": "[1]; [5]", "result": "no significant change"},
      {"measurement": "Myf5 transcript levels", "setting": "[1]; [5]", "result": "no difference"},
      {"measurement": "MyoD transcript levels", "setting": "[1]; [5]", "result": "no significant increase"},
      {"measurement": "MyoG transcript levels", "setting": "[1]; [5]", "result": "no difference"},
      {"measurement": "amount of centrally nucleated myofibers (CNM)", "setting": "tibialis of aged mice; 18-months old mice after cardiotoxin, apelin 0.5 μmol/kg/day, BGE-105 200 mg/kg/day", "result": "significant increase"},
      {"measurement": "cross-sectional area of the tibialis", "setting": "tibialis of aged mice; aged mice, 3 and 7 days post cardiotoxin, apelin, BGE-105 50 and 200 mg/kg/d", "result": "significant increase in cross sectional area"}
    ]}
  ]
}
